# Patent US20070014722A1, “Method of treating human volume expansion mediated hypertension employing resibufogenin” (The Administrators of the Tulane Educational Fund, priority 2005, published 2007)
# Values joined by “and” are separate entries in the source; they are usually repeats but may differ in a detail not shown here. Identical values can stand only once. “Also recorded” adds a separate entry of the source.
# Tests used:
# [1] = tested on: DOCA-salt uninephrectomized rats (volume expansion mediated hypertension); assay: Blood pressure in DOCA-salt uninephrectomized rats (volume expansion mediated hypertension model); format: in vivo, rat
# Protocol: (§1) In order to confirm the effectiveness of resibufogenin in treating volume expansion mediated hypertension, experiments were performed. Animal models of volume expansion mediated hypertension were created in the laboratory in accordance with guidance provided in “Down-regulation of Phosphorylation of Renal Proximal Brush Border Membrane Protein in DOCA-salt hypertensive rats”. H. Cai et al., J Am Soc Nephrol 5:S26, (1994). These models consisted of the administration of a potent mineralocorticoid desoxycorticosterone (DOCA) to rats whose drinking water had been replaced with 0.9% saline and which had one kidney removed (uninephrectomy) in order to induce volume expansion mediated hypertension. This group of animals is listed as Group I. Group II was the uninephrectomy control group (“time control”). Another group (Group III) utilized the Goldblatt 2 kidney, 1 clip model to induce vasoconstrictive (renin-angiotensin mediated) form of essential hypertension. All of the blood pressures were measured in mm Hg.
# In each group, a baseline blood pressure was taken. This is shown in the first column. Subsequently, 10 days to 2 weeks prior to the introduction of resibufogenin, the blood pressure was measured. This appears in the second column. In the third column, the blood pressure was measured 10 days after administration of resibufogenin. The rats in Groups I and III weighed about 200 to 250 gm with resibufogenin being administered in the amount of about 1.53 micrograms per 100 grams of body weight. […] It is also noted that in the Group II control, that there was no meaningful pattern of reduction in blood pressure.
# A dosage of approximately 1.53 micrograms […] with the rats weighing in the range of about 200-250 g was employed daily in order to determine the effectiveness of resibufogenin in the treatment of volume expansion mediated hypertension. The dosage was administered intraperitonially and the rats monitored after about three to four days of treatment. […]
# The dosage was administered intraperitonially and the rats monitored after about three to four days of treatment. […]
# [2] = tested on: Goldblatt 2 kidney, 1 clip model (renin-angiotensin mediated hypertension); assay: Blood pressure in Goldblatt 2 kidney, 1 clip rats (vasoconstrictive hypertension model); format: in vivo, rat; conditions: Group III, two rats; about 1.53 micrograms per 100 grams body weight
# Protocol: as §1
# In each group, a baseline blood pressure was taken. This is shown in the first column. Subsequently, 10 days to 2 weeks prior to the introduction of resibufogenin, the blood pressure was measured. This appears in the second column. In the third column, the blood pressure was measured 10 days after administration of resibufogenin. […]
# [3] = Biological activity as antiangiogenesis agent
compound,measurement,setting,value
"C[C@]12CC[C@H](O)C[C@H]1CC[C@@H]1[C@@H]2CC[C@]2(C)[C@@H](c3ccc(=O)oc3)C[C@H]3O[C@]132 [Resibufogenin, resibufogenin]",Reduction in blood pressure (in words),"[1]; Group I, four rats, 10 days after administration of resibufogenin",very substantial reduction in blood pressure; also recorded: meaningful reduction in blood pressure
same,Blood Pressure After 10 days of Resibufogenin,"[1]; Group I, individual rats #1-#4, about 1.53 micrograms per 100 grams body weight daily, intraperitoneal, in DMSO, after 10 days",85 mmHg and 90 mmHg and 130 mmHg and 100 mmHg
same,Reduction in blood pressure after treatment (in words),"[1]; daily intraperitoneal dose, rats monitored after about three to four days of treatment",all of the rats experienced a substantial reduction in blood pressure
same,Blood pressure response to resibufogenin (in words),[2],neither animal responded to resibufogenin
same,Biological activity as an antiangionesis agent,[3],not to be biologically active
